Data on one compound can be found in patent publication US10538567B2, “Compounds as peptidic trigonal GLP1/glucagon/GIP receptor agonists” (priority 2016, dated 2020).

As usually defined, the solubility is the concentration that dissolves in the medium under given conditions. Lower therefore signals a poorly soluble substance.

The data set in a line: Solubility assessment in solubility buffer system A. Type of data set: physicochemical. The settings on record: acetate buffer pH 4.5 with m-cresol; acetate buffer pH 4.5, 2.7 mg/ml m-cresol, target 10 mg/ml. On the procedure: Prior to the solubility measurement of a peptide batch, its purity was determined through UPLC/MS.
Therefore solutions from solid samples were prepared in a buffer system with a concentration of 10 mg/mL compound based on the previously determined % purity:
Solubility buffer system A) Acetate Buffer pH 4.5, 100 mM sodium acetate trihydrate, 2.7 mg/ml m-Cresol
UPLC-UV was performed after 1 hour of gentle agitation from the supernatant, which was obtained after 15 min of centrifugation at 2500 RCF (relative centrifugal acceleration).
The solubility was determined by the comparison of the UV peak area of 2 μL-injection of a buffered sample diluted 1:10 with a standard curve of a reference peptide with known concentration. The different UV extinction coefficients of sample and reference peptide were calculated based on the different amino acid sequences and considered in the concentration calculation.
Peptide samples were prepared in solubility buffer system A and solubility was assessed as described in Methods.

`CCCCCCCCCCCCCCCC(=O)N[C@@H](CCC(=O)N[C@@H](CCC(=O)NCCCC[C@H](NC(=O)[C@H](CC(C)C)NC(=O)[C@H](CCCCN)NC(=O)[C@H](CO)NC(=O)[C@H](CC(C)C)NC(=O)[C@H](CC(=O)O)NC(=O)[C@H](CO)NC(=O)[C@@H](NC(=O)[C@H](Cc1ccccc1)NC(=O)[C@@H](NC(=O)CNC(=O)[C@H](Cc1c[nH]cn1)NC(=O)C(C)(C)NC(=O)[C@@H](N)Cc1c[nH]cn1)[C@@H](C)O)[C@@H](C)O)C(=O)N[C@@H](CCC(=O)O)C(=O)N[C@@H](CCC(=O)O)C(=O)N[C@@H](CCC(N)=O)C(=O)N[C@@H](CCCNC(=N)N)C(=O)N[C@@H](CCC(N)=O)C(=O)NC(C)(C)C(=O)N[C@@H](CCC(=O)O)C(=O)N[C@@H](Cc1ccccc1)C(=O)N[C@H](C(=O)N[C@@H](CCC(=O)O)C(=O)N[C@@H](Cc1c[nH]c2ccccc12)C(=O)N[C@@H](CC(C)C)C(=O)N[C@@H](CCCCN)C(=O)N[C@@H](C)C(=O)NCC(=O)NCC(=O)N1CCC[C@H]1C(=O)N1CCC[C@H]1C(=O)N[C@@H](CO)C(=O)NC(C)(C)C(=O)N[C@@H](CCCCN)C(=O)N1CCC[C@H]1C(=O)N1CCC[C@H]1C(=O)N1CCC[C@H]1C(=O)N[C@@H](CCCCN)C(N)=O)[C@@H](C)CC)C(=O)O)C(=O)O` [SEQ ID NO: 10, H-Aib-H-G-T-F-T-S-D-L-S-K-L-K[gGlu-gGlu-Palm]-E-E-Q-R-Q-Aib-E-F-I-E-W-L-K-A-G-G-P-P-S-Aib-K-P-P-P-K-NH2] had a solubility at 1 h of over 9800 µg/mL.
